The source of these data is patent US20250011316A1, “PEROXIREDOXIN 3 INHIBITORS AND METHODS OF USE FOR TREATING CANCER” (Wake Forest University Health Sciences, priority 2022, published 2025).

Converted amounts (≈) assume the structure as drawn.

In one data set the target is T1, purified human PRX3 (Homo sapiens, UniProt P30048).
T1 construct: made in house
T1 sequence (P30048 62-256): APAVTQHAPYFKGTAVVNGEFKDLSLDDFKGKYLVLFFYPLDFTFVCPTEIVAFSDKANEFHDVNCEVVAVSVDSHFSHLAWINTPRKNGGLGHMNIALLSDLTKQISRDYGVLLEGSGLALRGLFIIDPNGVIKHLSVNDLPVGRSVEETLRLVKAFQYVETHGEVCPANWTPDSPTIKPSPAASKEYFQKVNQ
The experiment in a line: Biochemical PRX3 Inhibition Assay (non-reducible crosslink by SDS PAGE + single adduct by MALDI-TOF MS). As to conditions: 100 μM PRX3 with TRX2/thioredoxin reductase/NADPH system and hydrogen peroxide, 1-2 hr at 37° C. From the text:
The compounds described herein generally react with two essential cysteine residues in the mitochondrial peroxidase PRX3, leading to the formation of a non-reducible, covalent crosslink of two PRX3 monomers. This crosslink inactivates PRX3. Increased PRX3 crosslink is associated with mitochondrial stress, increased cell death in cell models of malignant mesothelioma and is associated with decreased tumor volume in a mouse model. Cunniff et al. (2015) PloS one 10, e0127310.
(§1) To test the activity of compounds, two complimentary assays were used as described below. The Biochemical PRX3 Inhibition Assay tests the ability of each compound to crosslink PRX3 in a simple, in vitro system. In the Cellular Activity Assay, we are testing the ability of compounds to kill SK—OV-3 ovarian cancer cells.
This assay tests the ability of each compound to form a covalent adduct with PRX3. The assay is performed as described in Nelson et al. (2021) Antioxidants (Basel) 10, 150; and Cunniff et al. (2015) PloS one 10, e0127310, and follows the appearance of non-reducible PRX3 crosslinks by SDS PAGE gel electrophoresis and follows the appearance of single PRX3 adducts by mass spectrometry. For this assay, purified human PRX3, hydrogen peroxide (the PRX3 substrate) and all the components required to enable PRX3 to catalytically cycle (thioredoxin-thioredoxin reductase-NAPDH system) are included (details below).
The biochemical PRX3 Inhibition assay contains 100 μM PRX3, 50 μM human TRX2, 0.5 μM mouse thioredoxin reductase, and a NADPH regenerating system composed of 3.2 mM glucose 6-phosphate, 3.2 U/ml glucose 6-phosphate dehydrogenase and 0.4 mM NADPH. Samples are incubated for 1-2 hr at 37° C. with either 0.2 mM TS (positive control), compounds or an equivalent volume of DMSO (negative control). During this incubation, hydrogen peroxide is added to induce turnover of PRX3. Reactions are stopped by the addition of a buffer containing 100 mM dithiothreitol (to break disulfide bonds) and SDS (detergent to denature proteins). NADPH, Glucose 6-Phosphate, and glucose 6-phosphate dehydrogenase were purchased from Sigma Aldrich. PRX3, thioredoxin, and thioredoxin reductase were all purified to >98% purity in the Lowther laboratory according to protocols referenced in Nelson et al. (2021) Antioxidants (Basel) 10, 150; and Cunniff et al. (2015) PloS one 10, e0127310.
To measure the amount of PRX3 crosslink, proteins in the reaction were separated by SDS-polyacrylamide gel electrophoresis and stained for total protein using GelCode Blue (Life Technologies). The amount of unmodified PRX3 and TS-PRX3 crosslink was measured by densiometric analysis of the signal for the PRX3 band running at the MW of a PRX3 crosslink (˜46 kDa) compared to the PRX3 signal at the MW of the un-modified PRX3 (−23 kD).
To measure covalent adduct formation on a single PRX3 monomer, each reaction was exchanged into a mass spectrometry compatible buffer containing 40 mM ammonium citrate, pH 8.3 made in HPLC water. Sample was mixed 1:1 with a matrix solution containing 30 mg/mL sinapinic acid in 70% (vol/vol) acetonitrile, 0.2% formic acid and spotted to onto the sample plate. PRX3 mass was measured by MALDI-TOF MS analysis on a Bruker Daltonics MALDI-TOF MS spectrometer. Spectra were analyzed in FLEXAnalysis Software. The intensity of the reduced PRX3 peak (SH) and intensity of the analog adduct peak was determined and corrected for background signal at the adduct peak in the DMSO control. The fraction of single analog adduct in the monomer peak was determined by dividing the intensity of the adduct peak by the summed intensity of the SH and adduct peaks.

The next data set in a line: Solubility Assay (HPLC). Format: physicochemical. As to conditions: HEPES/NaCl buffer, aqueous with cosolvent or surfactant or cyclodextrin, kinetic from dmso stock; 20 mM HEPES, 100 mM NaCl, pH 7.5, 18-24 hours at ambient temperature; read-out: Solubility. As for the experimental part: A 20 mM stock solution was made for each compound in DMSO. To measure solubility, 0.03-0.05 mL of the stock was added to 0.27 mL 20 mM HEPES, 100 mM NaCl, pH 7.5. The solution was mixed and rotated 18-24 hours at ambient temperature. The next day, solutions were centrifuged for 10 min at 20,000×g at […] to remove insoluble, solid material. Next, 100 μL of the supernatant containing the soluble compound was added to 900 μL DMSO and High Performance Liquid Chromatography was performed as described in Table 1 and either HIPLC gradient 1 (Table 2) or HIPLC gradient 2 (Table 3). For each analog, a 200 μM standard and a 20 μM standard were prepared and run in parallel (standards were dissolved completely in […]). The amount ofLcompound in the experimental sample was calculated by comparing the area under the curve for compound peak to the area for the closest standard and correcting for dilution.

Data set [1] concerns human SK—OV-3 ovarian cancer cells. Nature of the data set: Cellular Activity Assay (cytotoxicity, crystal violet). The format is cell-based. The settings on record: Homo sapiens, SK—OV-3 cells, treated for 48 hr, 0.1-100 μM, crystal violet absorbance at 540 nm.
Description: as §1
The Cellular Activity Assay measures the EC50 of each compound in human SK—OV-3 ovarian cancer cells TS to be taken into the cell, transported to the mitochondria, and crosslink PRX3.
The cytotoxicity of compounds was measured as described in Nelson et al. (2021) Antioxidants (Basel) 10, 150; Cunniff et al. (2015) PloS one 10, e0127310; and Newick et al. (2012) PloS one 7, e39404. SK—OV-3 is an adherent, epithelial, adenocarcinoma cell line obtained from ATCC (ref #: HTB-77). SK—OV-3 cells are resistant to the commonly used chemotherapeutics, cis-platinum and doxorubicin. For this […], SK—OV-3 cells were plated in a 96-well plate. After 24 h recovery, the cells were treated for 48 hr with multiple concentrations of each compound ranging from 0.1-100 μM.
Cells were washed with PBS to remove dead cells and the remaining live cells were fixed with 3.0% formaldehyde and stained with 0.1% crystal violet. The amount of crystal violet was determined by reading the absorbance at 540 nm (crystal violet dye dissolved in 100% methanol) using a plate reader. The signal for crystal violet dye is proportional to the biomass of remaining live cells. GraphPad Prism9 software was used to calculate the effective inhibitory concentration (EC50) of test compounds. Results for each compound, are normalized to the amount of cells in control wells treated with the equivalent concentration of DMSO (negative control). TS or Compound 4 were included in each set of assays as a positive control.

In data set [2] the test system is Enterococcus hirae (ATCC #10541). The experiment in a line: Antimicrobial Activity Assay (MIC / growth inhibition). The format is cell-based. As to conditions: ATCC10541; Enterococcus hirae; analogs tested at 20 μM final concentration. As for the experimental part:
The overnight growth was then diluted into growth media to make a single solution of E. hirae with a final optical density at 600 nm=0.02 AU. A 20 mM stock solution of Thiostrepton in DMSO was made and used to make multiple dilutions of TS in DMSO. Each TS dilution (0.1 mL) was then added to a test tube containing 10 mL of the diluted E. hirae and grown at 37° C. overnight while shaking at 180 rpm. The next morning, each tube was visually inspected to determine if the cells grew. Final concentrations tested were 0.120, 0.090, 0.075, 0.060, 0.045, 0.030, and 0.015 μM TS. […] Three replicates were made on three separate days (n=9). […] For TS analogs, the dilute E. hirae was treated with 20 μM final concentration of each analog (three replicates each). […] DMSO was used as a positive control (complete cell growth) and 20 μM thiostrepton was used as a negative control.

As for `C=C(NC(=O)c1csc(C2CCN(C(=O)OC(C)(C)C)CC2)n1)C(=O)NC(=C)C(=O)OC` [Compound 1, Tert-butyl 4-(4-((3-((3-methoxy-3-oxoprop-1-en-2-yl)amino)-3-oxoprop-1-en-2-yl)carbamoyl)thiazol-2-yl)piperidine-1-carboxylate], the “PRX3 Inhibition (Crosslink + Mono-adduct)” value (from here on “PRX3 Inhibition”) on purified human PRX3 was “++ (50-90%)”. In “Solubility Assay (HPLC)”, the solubility fell in the range of 100 to 1000 µM (≈ 46.5 to 465 µg/mL). This compound registered an EC50 in data set [1] of 1 to 10 µM. The compound also displayed a minimal inhibitory concentration (MIC) in data set [2] of over 20 µM.
For the compound `C=C(NC(=O)c1csc(-c2ccc(NC(=O)OC(C)(C)C)nc2)n1)C(=O)NC(=C)C(=O)OC` [Compound 2, Methyl 2-(2-(2-(6-((tert-butoxycarbonyl)amino)pyridine-3-yl)thiazole-4-carboxamido)acrylamido acrylate], the “PRX3 Inhibition” value at purified human PRX3 is “++ (50-90%)”. For the same compound, the solubility in the data set “Solubility Assay (HPLC)” was under 100 µM. Further, in data set [1] (SK-OV-3, 48 h), the EC50 lay in the range of 1 to 10 µM. In data set [2], this compound gave an MIC of over 20 µM.
In the case of `C=C(NC(=O)c1csc(C2CCCN(C(=O)OC(C)(C)C)C2)n1)C(=O)NC(=C)C(=O)OC` (stereo not drawn) [Compound 3, Tert-butyl 3-(4-((3-((3-methoxy-3-oxoprop-1-en-2-yl)amino)-3-oxoprop-1-en-2-yl)carbamoyl)thiazol-2-yl)piperidine-1-carboxylate], the “PRX3 Inhibition” value at purified human PRX3 is reported as “++ (50-90%)”. In addition, the solubility in the data set “Solubility Assay (HPLC)” lay within 100 to 1000 µM (≈ 46.5 to 465 µg/mL). Further, the EC50 in data set [1] was 10 to 25 µM. The compound also displayed an MIC in data set [2] of over 20 µM.
On the same counts, the results for `C=C(NC(=O)c1csc(-c2ccc(NC(=O)CCCCCBr)cc2)n1)C(=O)NC(=C)C(=O)OC` [Compound 4, Methyl 2-(2-(2-(4-(6-bromohexanamido)phenyl)thiazole-4-carboxamido)acrylamido)acrylate] are “++ (50-90%)”, under 100 µM, 1 to 10 µM and over 20 µM.
On the same counts, the results for `C=C(NC(=O)c1csc(-c2ccc(NC(=O)OC(C)(C)C)cc2)n1)C(=O)NC(=C)C(=O)OC` [Compound 5, Methyl 2-(2-(2-(4-((tert-butoxycarbonyl)amino)phenyl)thiazole-4-carboxamido)acrylamido)acrylate] are “+++ (>90%)”, under 100 µM, 1 to 10 µM and over 20 µM.
On to `C=C(NC(=O)c1csc(-c2ccc(C(=O)NCCCCCCOS(C)(=O)=O)nc2)n1)C(=O)NC(=C)C(=O)OC` [Compound 6, Methyl 2-(2-(2-(6-((6-((methylsulfonyl)oxy)hexyl)carbamoyl)pyridine-3-yl)thiazole-4-carboxamido)acrylamido)acrylate], for which the “PRX3 Inhibition” value on purified human PRX3 was “+++ (>90%)”. Moreover, the solubility in the data set “Solubility Assay (HPLC)” is under 100 µM. Moreover, the EC50 in data set [1] lay in the range of 1 to 10 µM. The minimum inhibitory concentration (MIC) in data set [2] was over 20 µM.
For `C=C(NC(=O)c1csc(-c2ccc(OC)cc2)n1)C(=O)NC(=C)C(=O)OC` [Compound 7, Methyl 2-(2-(2-(4-methoxyphenyl)thiazole-4-carboxamido)acrylamido)acrylate], at purified human PRX3, the “PRX3 Inhibition” value is reported as “++ (50-90%)”. For the same compound, the solubility in the data set “Solubility Assay (HPLC)” was under 100 µM. For the same compound, the EC50 in data set [1] fell in the range of 1 to 10 µM. In addition, the MIC in data set [2] was over 20 µM.
On the same counts, the results for `C=C(NC(=O)c1csc(-c2ccc(CNC(=O)OC(C)(C)C)cc2)n1)C(=O)NC(=C)C(=O)OC` [Compound 8, Methyl 2-(2-(2-(4-(((tert-butoxycarbonyl)amino)methyl)phenyl)thiazole-4-carboxamido)acrylamido)acrylate] are “+++ (>90%)”, under 100 µM, 1 to 10 µM and over 20 µM.
On the same counts, the results for `C=C(NC(=O)c1csc(C2=CCN(C(=O)OC(C)(C)C)CC2)n1)C(=O)NC(=C)C(=O)OC` [Compound 9, Tert-butyl 4-(4-((3-((3-methoxy-3-oxoprop-1-en-2-yl)amino)-3-oxoprop-1-en-2-yl)carbamoyl)thiazol-2-yl)-3,6-dihydropyridine-1(2H)-carboxylate] are “+++ (>90%)”, under 100 µM, 1 to 10 µM and over 20 µM.
For `C=C(NC(=O)c1csc(N2CCN(C(=O)OC(C)(C)C)[C@@H](C)C2)n1)C(=O)NC(=C)C(=O)OC` [Compound 57, Tert-butyl (S)-4-(4-((3-((3-methoxy-3-oxoprop-1-en-2-yl)amino)-3-oxoprop-1-en-2-yl)carbamoyl)thiazol-2-yl)-2-methylpiperazine-1-carboxylate], at purified human PRX3, the “PRX3 Inhibition” value is listed as “+++ (>90%)”. The solubility in the data set “Solubility Assay (HPLC)” was under 100 µM. The compound also displayed a concentration giving a half-maximal response (EC50) in data set [1] of 1 to 10 µM.

By solubility is commonly meant how much of the substance goes into solution per volume. A word on the EC50: it is the concentration giving half of the maximal effect. The MIC is the least concentration at which growth counts as inhibited. A low value points to greater potency.
